One molecule from publication doi:10.1101/2025.08.17.670703v1 (biorxiv, 2025) can be followed below.

For experiment [1], the target named is T1, HEV-PLpro (HEV papain-like cysteine protease) (Hepatitis E virus (strain Pakistan), UniProt P33424).
T1 sequence (P33424 432-592): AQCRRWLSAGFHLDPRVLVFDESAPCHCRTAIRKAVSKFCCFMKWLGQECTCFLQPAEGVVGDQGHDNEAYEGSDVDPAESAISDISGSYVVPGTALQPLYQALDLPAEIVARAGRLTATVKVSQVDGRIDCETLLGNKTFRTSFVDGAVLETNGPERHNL
Briefly: fluorogenic protease assay. It counts as biochemical.

The target in experiment [2] is T1, HEV-PLpro (HEV papain-like cysteine protease). Briefly: fluorogenic protease assay, secondary plot of Km' vs [I]. It counts as biochemical.

Each structure is given as a SMILES string.

Usually IC50 stands for the midpoint of a concentration-inhibition curve. As usually defined, the Ki is a dissociation constant, usually derived from enzyme kinetics or from competition with a known ligand.

The molecule `NC(=O)c1ncn([C@@H]2O[C@H](CO)[C@@H](O)[C@H]2O)n1` [RBV, ribavirin] gave an IC50 in experiment [1] of 78.3 µM. The Ki in experiment [2] is 47.6 µM.
